The target in test [1] is T1, human progesterone receptor A (Homo sapiens, UniProt P06401).
T1 construct: expressed in transfected cells; host or cells: SK-N-MC human neuroblastoma cells, stably transfected
T1 sequence (P06401 1-769 isoform P06401-2): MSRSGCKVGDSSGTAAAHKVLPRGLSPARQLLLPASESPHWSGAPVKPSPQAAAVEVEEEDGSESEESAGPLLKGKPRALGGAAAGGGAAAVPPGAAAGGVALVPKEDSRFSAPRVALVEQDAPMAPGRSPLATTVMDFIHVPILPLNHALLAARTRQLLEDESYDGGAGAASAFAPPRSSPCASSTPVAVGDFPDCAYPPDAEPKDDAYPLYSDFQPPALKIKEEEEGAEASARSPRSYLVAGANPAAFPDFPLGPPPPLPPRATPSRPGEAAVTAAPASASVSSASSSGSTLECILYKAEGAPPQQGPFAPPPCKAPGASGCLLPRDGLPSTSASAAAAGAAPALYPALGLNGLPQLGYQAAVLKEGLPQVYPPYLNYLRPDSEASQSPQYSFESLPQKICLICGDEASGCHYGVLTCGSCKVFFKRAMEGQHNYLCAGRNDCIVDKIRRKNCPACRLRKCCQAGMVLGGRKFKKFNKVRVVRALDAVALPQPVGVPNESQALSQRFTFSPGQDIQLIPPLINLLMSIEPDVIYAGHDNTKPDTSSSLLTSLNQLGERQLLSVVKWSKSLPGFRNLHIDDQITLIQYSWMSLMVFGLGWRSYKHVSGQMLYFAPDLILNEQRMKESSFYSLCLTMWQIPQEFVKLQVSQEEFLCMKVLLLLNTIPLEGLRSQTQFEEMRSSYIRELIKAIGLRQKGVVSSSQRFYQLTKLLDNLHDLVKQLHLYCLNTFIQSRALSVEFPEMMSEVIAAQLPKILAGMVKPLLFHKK
The experiment in a line: Progesterone receptor-antagonistic action in stably transfected SK-N-MC cells, MTV-LUC reporter (PR-A). The format is cell-based. The settings on record: for Progesterone receptor A (PR-A) Efficacy: antagonistic efficacy vs 0.1 nmol/l promegestone; for IC50: antagonism of 0.1 nmol/l promegestone, 24 hours, LUC reporter, read-out: Progesterone receptor A (PR-A) Potency IC50. On the procedure: (§1) EXAMPLE 16 PROGESTERONE RECEPTOR-ANTAGONISTIC ACTION IN STABLE TRANSFECTANTS OF HUMAN NEUROBLASTOMA CELLS (SK-N-MC CELLS) WITH THE HUMAN PROGESTERONE A OR PROGESTERONE B RECEPTOR AND AN MTV-LUC REPORTER CONSTRUCT
(§2) SK-N-MC cells (human neuroblastoma cells), which have been stably transfected with plasmids, which express the human progesterone receptor B (pRChPR-B-neo) or the human progesterone receptor A (pRChPR-A-neo) and a reporter construct (pMMTV-LUC), were incubated for 24 hours either in the absence (negative control) or in the presence of increasing amounts of the respective test compound (0.01 nmol/l, 0.1 nmol/l 1 nmol/l, 10 nmol/l, 100 nmol/l and 1 μmol/l), in order to determine the agonistic efficacy. As positive control of reporter gene induction, the cells were treated with the synthetic gestagen promegestone (0.01 nmol/l, 0.1 nmol/l, 1 nmol/l, 10 nmol/l, 100 nmol/l and 1 μmol/l). For determination of the antagonistic activity, the cells were treated with 0.1 nmol/1 promegestone and additionally with increasing amounts of the respective test compound (0.01 nmol/l, 0.1 nmol/l, 1 nmol/l, 10 nmol/l, 100 nmol/l and 1 μmol/l). The activity of the LUC reporter gene (LUC=luciferase) was determined in the cell lysates and was measured as RLU (relative light units). All measured values are given as percentage efficacy and as EC50 or IC50 concentrations.
(§3) 11β-(4-Acetylphenyl)-20,20,21,21,21-pentafluoro-17-hydroxy-19-nor-17α-pregna-4,9-dien-3-one and 20,20,21,21,21-pentafluoro-17-hydroxy-11β-[4-(hydroxyacetyl)phenyl]-19-nor-17α-pregna-4,9-dien-3-one, very potent and therefore preferred examples from WO98/34947 and WO2008/058767, were tested as comparative compounds along with the test compound.

Test [2] has as its target T2, human progesterone receptor B (Homo sapiens, UniProt P06401).
T2 construct: expressed in transfected cells; host or cells: SK-N-MC human neuroblastoma cells, stably transfected
T2 sequence (P06401 1-933): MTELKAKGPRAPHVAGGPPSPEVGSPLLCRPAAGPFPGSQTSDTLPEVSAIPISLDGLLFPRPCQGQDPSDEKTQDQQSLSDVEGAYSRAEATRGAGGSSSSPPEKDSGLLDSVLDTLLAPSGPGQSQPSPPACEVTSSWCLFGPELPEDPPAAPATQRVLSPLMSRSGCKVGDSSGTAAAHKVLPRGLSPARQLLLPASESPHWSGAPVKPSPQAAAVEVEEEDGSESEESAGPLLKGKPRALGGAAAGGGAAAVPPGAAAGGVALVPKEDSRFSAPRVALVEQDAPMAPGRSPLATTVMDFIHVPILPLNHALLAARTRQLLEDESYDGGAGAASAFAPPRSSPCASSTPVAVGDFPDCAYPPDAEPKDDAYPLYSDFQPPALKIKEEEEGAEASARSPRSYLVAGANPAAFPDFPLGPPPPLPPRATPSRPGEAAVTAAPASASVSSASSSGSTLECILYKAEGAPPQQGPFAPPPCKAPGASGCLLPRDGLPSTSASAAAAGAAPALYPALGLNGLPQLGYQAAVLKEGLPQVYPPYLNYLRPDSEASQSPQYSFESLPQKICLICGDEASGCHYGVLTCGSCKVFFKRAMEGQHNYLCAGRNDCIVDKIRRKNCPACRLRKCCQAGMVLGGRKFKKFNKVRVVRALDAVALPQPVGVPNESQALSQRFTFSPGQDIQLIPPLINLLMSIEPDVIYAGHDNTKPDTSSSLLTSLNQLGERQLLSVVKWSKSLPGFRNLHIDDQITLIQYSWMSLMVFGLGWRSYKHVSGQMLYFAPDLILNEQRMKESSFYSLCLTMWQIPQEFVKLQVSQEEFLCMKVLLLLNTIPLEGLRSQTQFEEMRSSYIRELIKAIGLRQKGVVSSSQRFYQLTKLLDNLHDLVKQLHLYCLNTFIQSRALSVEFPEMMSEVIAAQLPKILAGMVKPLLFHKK
The experiment in a line: Progesterone receptor-antagonistic action in stably transfected SK-N-MC cells, MTV-LUC reporter (PR-B). Type of test: cell-based. The settings on record: for Progesterone receptor B (PR-B) Efficacy: antagonistic efficacy vs 0.1 nmol/l promegestone; for IC50: antagonism of 0.1 nmol/l promegestone, 24 hours, LUC reporter, read-out: Progesterone receptor B (PR-B) Potency IC50. On the procedure:
as §1, §2, §3

For another test, the system named is pregnant rats. The experiment in a line: Abortion test on female rats (termination of early pregnancy). The format is in vivo, rat. The settings on record: d5-d7 p.c., autopsy d9 p.c. On the procedure:
EXAMPLE 17 ABORTION TEST ON FEMALE RATS
The action of progesterone and of the progesterone receptor is a fundamental precondition for successful pregnancy or gestation in mammals. The progesterone-antagonistic action of the compounds according to the invention was tested on pregnant rats (6 rats per group) on day 5 to 7 post coitum with conventional housing and feeding conditions.
After successful hand mating, the pregnant animals (presence of sperm in the vaginal smear on day 1 of pregnancy=d1 p.c.) were randomized and divided into the treatment group and the control group. The animals then each received subcutaneously or orally 0.15; 0.5; 1.5 or 5 mg/kg of the test compound or 1.0 ml/kg of vehicle (benzyl benzoate/castor oil: 1+4 [v/v]) daily from day 5 to day 7 (d5-d7 p.c.).
Autopsy was carried out on day 9 (d9 p.c.). As a characteristic of progesterone receptor antagonistic action, the uterus was examined for the presence of nidation sites. Complete absence, or also the presence of pathological, haemorrhagic or otherwise abnormal nidation sites on day 9 (d9 p.c.) was assessed as abortion.

Setting [3] is: daily dose 0.5 mg/kg s.c. or p.o.
[4] abbreviates: daily dose 1.5 mg/kg s.c. or p.o.
Where [5] appears, read: daily dose 5.0 mg/kg s.c. or p.o.

The results in this text go back to patent publication US10155004B2, “17-hydroxy-17-pentafluoroethyl-estra-4,9(10)-dien-11-aryl derivatives, method of production thereof and use thereof for the treatment of diseases” (BAYER INTELLECTUAL PROPERTY GMBH, priority 2009, dated 2018).

The IC50 is the concentration that inhibits the measured activity by half.

Take `C[S+]([O-])c1ccc([C@H]2C[C@@]3(C)[C@@H](CC[C@@]3(O)C(F)(F)C(F)(F)F)[C@@H]3CCC4=CC(=O)CCC4=C32)cc1` (mixture of isomers) [Example 3, (11β,17β)-17-Hydroxy-11-{4-[(RS)-methylsulphinyl]phenyl}-17-(pentafluoroethy)estra-4,9-dien-3-one]: in test [1], the “Progesterone receptor A (PR-A) Efficacy” value amounted to 100%. The “Progesterone receptor B (PR-B) Efficacy” value in test [2] came to 100%.

For the compound `CC(=O)c1ccc(C2CC3(C)C(CCC3(O)C(F)(F)C(F)(F)F)C3CCC4=CC(=O)CCC4=C23)cc1` (stereo not drawn) [11β-(4-Acetylphenyl)-20,20,21,21,21-pentafluoro-17-hydroxy-19-nor-17α-pregna-4,9-dien-3-one, reference compound], the IC50 in test [1] is 0.014 nM; in test [2] it was 0.02 nM.

`CSc1ccc([C@H]2C[C@@]3(C)[C@@H](CC[C@@]3(O)C(F)(F)C(F)(F)F)[C@@H]3CCC4=CC(=O)CCC4=C32)cc1` [Example 1, (11β,17β)-17-hydroxy-11-[4-(methylsulphanyl)phenyl]-17-(pentafluoroethyl)estra-4,9-dien-3-one]: the “Progesterone receptor A (PR-A) Efficacy” value in test [1] is given as 100%. The “Progesterone receptor B (PR-B) Efficacy” value in test [2] is recorded as 100%. In addition, the values for the Abortion rate in the test on pregnant rats (setting [3]), in the test on pregnant rats (setting [4]) and in the test with pregnant rats (setting [5]) were 80%, 100% and 100%, respectively.

As to `CCSc1ccc([C@H]2C[C@@]3(C)C(CC[C@@]3(O)C(F)(F)C(F)(F)F)C3CCC4=CC(=O)CCC4=C32)cc1` (stereo partly drawn) [Example 2, (11β,17β)-11-[4-(ethylsulphanyl)phenyl]-17-hydroxy-17-(pentafluoroethyl)estra-4,9-dien-3-one], the half-inhibitory concentration (IC50) in test [1] came out at 0.01 nM.

For the compound `C[C@]12C[C@H](c3ccc(S(C)(=N)=O)cc3)C3=C4CCC(=O)C=C4CCC3C1CC[C@@]2(O)C(F)(F)C(F)(F)F` (stereo partly drawn) [Example 8, (11β,17β)-17-Hydroxy-11-[4-(RS-methylsulphonimidoyl)phenyl]-17-(pentafluoroethyl)estra-4,9-dien-3-one], the “Progesterone receptor A (PR-A) Efficacy” value in test [1] was 100%. For the same compound, in test [2], the “Progesterone receptor B (PR-B) Efficacy” value was 100%. Further, the Abortion rate was 40% with pregnant rats (daily dose 0.15 mg/kg s.c. or p.o.), 100% in the test on pregnant rats (setting [3]), 100% with pregnant rats (setting [4]) and 100% with pregnant rats (setting [5]).

On to `CSc1ccc(-c2ccc([C@H]3C[C@@]4(C)[C@@H](CC[C@@]4(O)C(F)(F)C(F)(F)F)[C@@H]4CCC5=CC(=O)CCC5=C43)cc2)cc1` [Example 9, (11β,17β)-17-Hydroxy-11-[4′-(methylsulphanyl)biphenyl-4-yl]-17-(pentafluoroethy)estra-4,9-dien-3-one], for which the IC50 in test [1] and in test [2] was 0.01 nM each time.

Turning to `CN(C)S(=O)(=O)c1ccc(-c2ccc([C@H]3C[C@@]4(C)[C@@H](CC[C@@]4(O)C(F)(F)C(F)(F)F)[C@@H]4CCC5=CC(=O)CCC5=C43)cc2)cc1` [Example 14, 4′-[(11β,17β)-17-hydroxy-3-oxo-17-(pentafluoroethyl)estra-4,9-dien-11-yl]-N,N-dimethylbiphenyl-4-sulphonamide], the IC50 in test [1] stood at 0.01 nM.

As to `CN(C)S(=O)(=O)c1ccc([C@H]2C[C@@]3(C)[C@@H](CC[C@@]3(O)C(F)(F)C(F)(F)F)[C@@H]3CCC4=CC(=O)CCC4=C32)cc1` [Example 15, 4-[(11β,17β)-17-Hydroxy-3-oxo-17-(pentafluoroethy)estra-4,9-dien-11-yl]-N,N-dimethylbenzene Sulphonamide], the IC50 in test [1] worked out at 0.1 nM; in test [2], 0.2 nM.
